Values joined by “and” are separate entries in the source; they are usually repeats but may differ in a detail not shown here. Identical values can stand only once.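 Method: 48-hour compound exposure of cells in 96-well plates, five concentrations, linear interpolation of endpoints. Here, GI50 denotes the concentration required for 50% inhibition of growth. TGI is the concentration that stops growth completely.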
Legend:
Assay in all cases: growth of human tumour cells (NCI), 48 h
A498 renal = test system: A498 renal
EKVX NSCLC = test system: EKVX NSCLC
LOX IMVI melanoma = test system: LOX IMVI melanoma
MCF7 breast = test system: MCF7 breast
MDA-MB-435 = test system: MDA-MB-435
OVCAR-3 ovarian = test system: OVCAR-3 ovarian
SF-295 CNS = test system: SF-295 CNS
SF-539 CNS = test system: SF-539 CNS
SNB-19 CNS = test system: SNB-19 CNS
U251 CNS = test system: U251 CNS

Structure (SMILES)	GI50 (A498 renal)	TGI (A498 renal)	GI50 (EKVX NSCLC)	TGI (EKVX NSCLC)	GI50 (LOX IMVI melanoma)	TGI (LOX IMVI melanoma)	GI50 (MCF7 breast)	TGI (MCF7 breast)	GI50 (MDA-MB-435)	TGI (MDA-MB-435)	GI50 (OVCAR-3 ovarian)	TGI (OVCAR-3 ovarian)	GI50 (SF-295 CNS)	TGI (SF-295 CNS)	GI50 (SF-539 CNS)	TGI (SF-539 CNS)	GI50 (SNB-19 CNS)	TGI (SNB-19 CNS)	GI50 (U251 CNS)	TGI (U251 CNS)
COc1ccc(C(=O)/C=C/c2ccc(C)cc2)cc1OC	12.5 µM	25 µM	18.4 µM	42.9 µM	13 µM	25.6 µM	3.09 µM	15.1 µM	15.5 µM	32 µM	2.55 µM	12.7 µM	12.1 µM	28.4 µM	5.32 µM	18.2 µM	12.8 µM	25.5 µM	4.78 µM	17.3 µM
COC(=O)CCc1c[nH]c2ccc(N(CCCl)CCCl)cc12	3.4 µM	18.2 µM	21.8 µM	> 77.7 µM	1.39 µM	> 36.2 µM	0.572 µM	22.9 µM	8.98 µM	25.9 µM	8.05 µM	49.6 µM	0.826 µM	> 58.8 µM	0.486 µM	4.69 µM	3.43 µM	> 76.2 µM	1.31 µM	25.1 µM
CN[C@H]1C=C[C@@H]2/C=C(C)/C=C/[C@@H](C)[C@H]([C@H](C)[C@H](O)[C@@H](C)NC(C)=O)OC(=O)/C=C/C=C(C)\C=C\[C@]2(C)C1	0.0113 µM	2.67 µM	–	> 49 µM	0.0049 µM	0.00504 µM	< 0.001 µM and 0.0049 µM	> 49 µM	< 0.001 µM and 0.0049 µM	9.14 µM	–	46.7 µM	< 0.001 µM and 0.0049 µM	–	< 0.001 µM and 0.0049 µM	12.8 µM	0.0795 µM and 0.0718 µM	> 49 µM	< 0.001 µM and 0.0049 µM	> 49 µM
CCC[CH2][Sn]([CH2]CCC)([CH2]CCC)[O]c1ccc(Cl)cc1Cl	0.0565 µM	0.21 µM	0.0948 µM	0.302 µM	0.111 µM	0.253 µM	0.125 µM	0.255 µM	0.139 µM	0.29 µM	0.128 µM	0.259 µM	0.15 µM	0.307 µM	0.179 µM	0.372 µM	0.175 µM	0.344 µM	0.146 µM	0.297 µM
CCN(Cc1cccc(F)c1)c1ccc(CO)c(Cl)c1	0.0356 µM	0.169 µM	22.3 µM	> 76 µM	14.1 µM	28.8 µM	0.216 µM	17.8 µM	18.2 µM	55.1 µM	0.711 µM	6.71 µM	1.21 µM	> 45.3 µM	23.8 µM	63.5 µM	21.8 µM	> 92.6 µM	1.01 µM	26.5 µM
FC(F)(F)c1nc2nc(Cl)c(Cl)nc2n1CCCN1CCOCC1	–	> 100 µM	–	50.5 µM	–	> 100 µM	–	> 100 µM	–	> 100 µM	–	> 100 µM	–	> 100 µM	–	> 100 µM	–	> 100 µM	–	> 100 µM
CCOC(=O)c1sc(-c2ccc(OS(=O)(=O)c3ccc(Br)s3)c(C=O)c2)nc1C	6.15 µM	40.1 µM	14.3 µM	54.1 µM	2.9 µM	8.52 µM	2.86 µM	8.97 µM	2.47 µM	6.79 µM	2.48 µM	6.71 µM	5.08 µM	18.4 µM	2.43 µM	6.16 µM	3.17 µM	12 µM	2.68 µM	10.3 µM
[Cl][Hg][Cl]	20.4 µM	34.7 µM	19.9 µM	34.6 µM	1.72 µM	16 µM	12.5 µM	> 56 µM	15.7 µM	30.2 µM	15.9 µM	32.1 µM	16.7 µM	31.9 µM	18.3 µM	33.5 µM	17.9 µM	32 µM	6.25 µM	19.8 µM
CCCNNC(=O)/C=C/c1ccc(CNCCc2c(C)[nH]c3ccccc23)cc1	0.00955 µM	0.0244 µM	0.074 µM	3.73 µM	0.0368 µM	0.0797 µM	0.0252 µM	3.6 µM	0.0494 µM	0.464 µM	0.0433 µM	0.161 µM	0.0471 µM	0.171 µM	0.0435 µM	3.78 µM	0.0768 µM	2.1 µM	0.0306 µM	0.207 µM
CCOc1ccc2nc(SCc3nc4n(n3)S(=O)(=O)c3ccccc3N4C)sc2c1	> 100 µM	> 100 µM	> 100 µM	> 100 µM	> 100 µM	> 100 µM	> 100 µM	> 100 µM	> 100 µM	> 100 µM	> 100 µM	> 100 µM	> 100 µM	> 100 µM	53.8 µM	> 100 µM	> 100 µM	> 100 µM	68.5 µM	> 100 µM
Cc1ccc(-c2csc(/N=C3\C(=O)Nc4ccccc43)n2)cc1	1.71 µM	3.53 µM	1.52 µM	5.86 µM	1.28 µM	2.8 µM	1.01 µM	3.11 µM	1.38 µM	2.87 µM	1.64 µM	4.89 µM	1.32 µM	2.87 µM	1.71 µM	3.45 µM	1.52 µM	3.19 µM	1.46 µM	3.05 µM
O=C1c2ccccc2-c2c1c1c(=O)[nH]c3ccccc3c1n2Cc1ccccc1	21.1 µM	50.6 µM	30.4 µM	99.5 µM	31.3 µM	> 100 µM	35.8 µM	> 100 µM	> 100 µM	> 100 µM	35 µM	> 100 µM	17.2 µM	40.9 µM	17.8 µM	40.5 µM	25.1 µM	65.5 µM	16.6 µM	34.1 µM
CC(=O)OCC1OC(n2c(-c3ccc(Cl)cc3)ccc(C#N)c2=S)C(OC(C)=O)C(OC(C)=O)C1OC(C)=O (configuration not stated)	24.9 µM and 73.8 µM	56.1 µM and > 100 µM	–	> 82.9 µM and 80.1 µM	–	> 100 µM	–	> 100 µM	–	> 100 µM	98.7 µM and 48.1 µM	> 100 µM	13.8 µM and > 100 µM	35 µM and > 100 µM	–	99 µM and > 100 µM	14.8 µM and 42.2 µM	58.4 µM and > 100 µM	10.4 µM and 61.4 µM	40 µM and > 100 µM
C=C1C(=O)O[C@H]2[C@H]1CC/C(COC(=O)CSCCSCC(=O)OC/C1=C/CC[C@@]3(C)O[C@H]3[C@H]3OC(=O)C(=C)[C@@H]3CC1)=C\CC[C@@]1(C)O[C@@H]21	2.75 µM	10.7 µM	1.66 µM	3.7 µM	1.49 µM	2.92 µM	0.832 µM	2.66 µM	2.18 µM	5.22 µM	1.15 µM	2.44 µM	2.29 µM	5.76 µM	1.55 µM	3.12 µM	2.85 µM	9.61 µM	1.66 µM	3.51 µM
Nc1ccccc1C(=O)CC1OC(=O)c2ccccc21 (configuration not stated)	–	> 100 µM	–	> 100 µM	–	> 100 µM	–	> 100 µM	–	> 100 µM	–	> 100 µM	–	> 100 µM	–	> 100 µM	–	> 100 µM	–	> 100 µM
CC(C(=O)c1ccccc1)C(c1ccccc1)N1CCOCC1 (configuration not stated)	–	> 100 µM	–	> 100 µM	–	> 100 µM	–	> 100 µM	–	> 100 µM	–	> 100 µM	–	> 100 µM	–	> 100 µM	–	> 100 µM	–	> 100 µM
CCCN(CCCC(NC(C)=O)C(=O)NCc1ccccc1)C(=O)N(CCCl)N=O (configuration not stated)	–	31.1 µM	–	59 µM	–	31.5 µM	–	> 100 µM	–	> 100 µM	–	53.3 µM	–	43.3 µM	–	5.95 µM	–	> 84.9 µM	–	20.1 µM
O=C(CO[N+](=O)[O-])Nc1ccc(C(=O)/C=C/c2ccc(Cl)cc2)cc1	15.4 µM	54.9 µM	15 µM	74.6 µM	1.59 µM	3.51 µM	0.666 µM	6.44 µM	2.96 µM	11.2 µM	2.22 µM	6.55 µM	5.82 µM	29.2 µM	2.52 µM	8.81 µM	4.11 µM	18.4 µM	1.48 µM	3.15 µM
CC[N+](CC)=c1sc2c(s1)C(c1ccc(Cl)cc1)Oc1ccc(Cl)cc1-2 (configuration not stated)	3.37 µM	10.2 µM	1.96 µM	9.53 µM	1.51 µM	3.22 µM	1.54 µM	4.73 µM	2.04 µM	4.66 µM	1.91 µM	3.95 µM	1.09 µM	4.64 µM	1.46 µM	2.97 µM	0.487 µM	1.84 µM	0.374 µM	1.37 µM
COc1cc(NC(N)=NCCC(C)(C)Oc2ccc(C(F)(F)F)cc2)ncc1C#N	1.8 µM	3.23 µM	1.45 µM	2.85 µM	1.6 µM	3.01 µM	1.61 µM	3.18 µM	1.73 µM	3.17 µM	1.68 µM	3.17 µM	1.57 µM	2.99 µM	1.8 µM	3.26 µM	1.84 µM	3.3 µM	1.79 µM	3.22 µM

— PubChem BioAssay (NCI)
